In ChEMBL document CHEMBL2021914, “Inhibition of platelet adhesion by peptidomimetics mimicking the interactive β-hairpin of glycoprotein Ibα” (Bioorg Med Chem Lett, 2012):
The source made the active and inactive calls. The calls are words filed in the database; no cut-off is given here. Where a SMILES comes first, the peptide text is derived from it. Bridges are numbered along the chain shown (N, C = ends).

Key:
[1] = target: von Willebrand factor (Homo sapiens) (UniProt P04275); assay: Inhibition of GPIbalpha-vWF binding assessed as inhibition of ristocetin-induced platelet agglutination at 100 uM after 2 mins by static agglutination assay
Chain of von Willebrand factor (Homo sapiens) (P04275 whole entry): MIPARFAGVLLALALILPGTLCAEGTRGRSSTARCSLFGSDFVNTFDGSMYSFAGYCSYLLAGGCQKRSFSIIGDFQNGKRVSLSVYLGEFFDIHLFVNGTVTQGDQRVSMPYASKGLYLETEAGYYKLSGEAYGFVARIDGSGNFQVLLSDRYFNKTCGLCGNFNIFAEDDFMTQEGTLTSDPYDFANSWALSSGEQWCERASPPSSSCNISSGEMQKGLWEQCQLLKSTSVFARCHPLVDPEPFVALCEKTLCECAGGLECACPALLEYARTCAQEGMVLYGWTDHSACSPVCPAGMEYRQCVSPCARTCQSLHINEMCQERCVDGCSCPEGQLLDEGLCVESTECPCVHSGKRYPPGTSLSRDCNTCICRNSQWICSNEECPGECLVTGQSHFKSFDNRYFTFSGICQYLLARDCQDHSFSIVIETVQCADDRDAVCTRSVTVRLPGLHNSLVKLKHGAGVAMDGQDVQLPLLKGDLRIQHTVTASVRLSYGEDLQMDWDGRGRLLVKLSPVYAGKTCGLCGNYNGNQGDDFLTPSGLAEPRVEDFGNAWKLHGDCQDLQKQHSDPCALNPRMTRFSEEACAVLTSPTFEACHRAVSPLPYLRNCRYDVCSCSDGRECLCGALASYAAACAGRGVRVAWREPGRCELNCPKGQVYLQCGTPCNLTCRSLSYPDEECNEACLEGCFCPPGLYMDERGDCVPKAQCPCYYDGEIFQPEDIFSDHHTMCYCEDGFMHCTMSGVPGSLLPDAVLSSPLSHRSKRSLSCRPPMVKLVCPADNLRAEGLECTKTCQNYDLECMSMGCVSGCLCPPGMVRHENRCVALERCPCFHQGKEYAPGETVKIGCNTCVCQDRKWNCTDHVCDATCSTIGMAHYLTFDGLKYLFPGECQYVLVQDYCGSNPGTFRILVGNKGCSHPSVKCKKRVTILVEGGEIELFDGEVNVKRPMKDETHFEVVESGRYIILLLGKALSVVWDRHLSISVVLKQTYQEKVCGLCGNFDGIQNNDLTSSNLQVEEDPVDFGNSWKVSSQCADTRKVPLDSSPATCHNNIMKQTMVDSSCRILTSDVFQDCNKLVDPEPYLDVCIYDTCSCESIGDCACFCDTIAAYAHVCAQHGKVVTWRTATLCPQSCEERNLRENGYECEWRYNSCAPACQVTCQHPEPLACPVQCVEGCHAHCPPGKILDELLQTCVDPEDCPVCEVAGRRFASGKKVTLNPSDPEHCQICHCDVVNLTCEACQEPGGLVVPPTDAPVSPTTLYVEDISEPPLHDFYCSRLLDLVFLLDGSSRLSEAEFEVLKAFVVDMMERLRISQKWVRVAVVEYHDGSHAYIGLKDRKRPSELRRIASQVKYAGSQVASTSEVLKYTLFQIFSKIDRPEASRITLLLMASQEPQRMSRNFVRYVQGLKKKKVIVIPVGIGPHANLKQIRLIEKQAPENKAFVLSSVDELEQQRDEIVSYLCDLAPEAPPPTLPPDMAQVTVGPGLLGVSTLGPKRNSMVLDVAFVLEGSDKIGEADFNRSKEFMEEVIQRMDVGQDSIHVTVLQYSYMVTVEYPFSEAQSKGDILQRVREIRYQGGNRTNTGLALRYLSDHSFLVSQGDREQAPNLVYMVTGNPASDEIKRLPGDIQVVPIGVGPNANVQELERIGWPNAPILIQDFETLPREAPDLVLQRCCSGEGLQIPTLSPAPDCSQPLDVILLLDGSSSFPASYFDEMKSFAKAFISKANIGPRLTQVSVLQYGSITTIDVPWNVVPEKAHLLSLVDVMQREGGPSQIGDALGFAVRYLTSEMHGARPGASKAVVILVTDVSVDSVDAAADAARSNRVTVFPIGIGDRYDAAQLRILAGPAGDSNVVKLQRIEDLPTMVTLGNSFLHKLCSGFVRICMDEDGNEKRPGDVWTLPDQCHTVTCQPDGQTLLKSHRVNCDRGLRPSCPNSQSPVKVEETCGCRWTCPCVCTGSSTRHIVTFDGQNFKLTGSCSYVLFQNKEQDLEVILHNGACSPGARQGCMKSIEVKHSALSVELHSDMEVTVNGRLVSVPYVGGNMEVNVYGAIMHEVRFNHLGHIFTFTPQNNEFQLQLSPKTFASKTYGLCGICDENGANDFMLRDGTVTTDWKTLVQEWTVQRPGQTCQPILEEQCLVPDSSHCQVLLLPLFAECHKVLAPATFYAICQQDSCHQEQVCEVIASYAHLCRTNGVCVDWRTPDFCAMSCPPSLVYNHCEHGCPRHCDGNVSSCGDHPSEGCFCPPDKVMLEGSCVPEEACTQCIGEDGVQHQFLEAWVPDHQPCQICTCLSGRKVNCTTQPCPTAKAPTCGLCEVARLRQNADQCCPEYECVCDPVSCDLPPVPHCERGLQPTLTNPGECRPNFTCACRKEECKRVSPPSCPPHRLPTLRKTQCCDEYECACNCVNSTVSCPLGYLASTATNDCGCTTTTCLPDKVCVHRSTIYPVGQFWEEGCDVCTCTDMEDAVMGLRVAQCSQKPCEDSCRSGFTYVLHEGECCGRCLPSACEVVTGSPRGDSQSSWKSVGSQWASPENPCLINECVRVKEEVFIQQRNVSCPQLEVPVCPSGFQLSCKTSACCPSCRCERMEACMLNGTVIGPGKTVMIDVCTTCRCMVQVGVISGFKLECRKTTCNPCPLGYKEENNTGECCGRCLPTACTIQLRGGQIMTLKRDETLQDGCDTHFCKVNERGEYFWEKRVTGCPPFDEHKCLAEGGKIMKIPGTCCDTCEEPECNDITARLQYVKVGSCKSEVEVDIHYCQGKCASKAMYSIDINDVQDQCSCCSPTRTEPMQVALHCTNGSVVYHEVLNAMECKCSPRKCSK

[2] = target: von Willebrand factor (Homo sapiens) (UniProt P04275); assay: Inhibition of GPIbalpha-human vWF binding assessed as decrease in arterial shear-induced platelet adhesion to vWF measuring number of platelets adhered during flow at 100 uM preincubated for 5 mins by parallel plate flow assay with real time imaging microscopy
[3] = target: von Willebrand factor (Homo sapiens) (UniProt P04275); assay: Inhibition of GPIbalpha-human vWF binding assessed as decrease in arterial shear-induced platelet adhesion to vWF measuring number of platelets adhered after flow at 100 uM preincubated for 5 mins by parallel plate flow assay with real time imaging microscopy
[4] = target: von Willebrand factor (Homo sapiens) (UniProt P04275); assay: Inhibition of GPIbalpha-vWF binding assessed as ristocetin-induced platelet agglutination at 100 uM after 2 mins by static agglutination assay using washed platelets from male (reference value: 58%); parameters: scale not given: the % may be the effect or the level left
[5] = target: von Willebrand factor (Homo sapiens) (UniProt P04275); assay: Inhibition of GPIbalpha-vWF binding assessed as ristocetin-induced platelet agglutination at 100 uM after 2 mins by static agglutination assay using washed platelets from female (reference value: 61.7%); parameters: scale not given: the % may be the effect or the level left
[6] = target: von Willebrand factor (Homo sapiens) (UniProt P04275); assay: Inhibition of GPIbalpha-human vWF binding assessed as platelet rolling velocity at 100 uM preincubated for 5 mins by parallel plate flow assay with real time imaging microscopy (reference value: 7.1 um/sec)
[7] = target: von Willebrand factor (Homo sapiens) (UniProt P04275); assay: Inhibition of GPIbalpha-vWF binding assessed as constant shear stress at 120 dynes/cm'2-induced platelet agglutination at 10 uM preincubated for 5 mins by cone and plate rheometer analysis relative to control using male platelet rich plasma (reference value: 100%); parameters: scale not given: the % may be the effect or the level left
[8] = target: von Willebrand factor (Homo sapiens) (UniProt P04275); assay: Inhibition of GPIbalpha-vWF binding assessed as constant shear stress at 120 dynes/cm'2-induced platelet agglutination at 10 uM preincubated for 5 mins by cone and plate rheometer analysis relative to control using female platelet rich plasma (reference value: 100%); parameters: scale not given: the % may be the effect or the level left
[9] = target: von Willebrand factor (Homo sapiens) (UniProt P04275); assay: Inhibition of GPIbalpha-vWF binding assessed as inhibition of ristocetin-induced platelet agglutination at 100 uM after 2 mins by static agglutination assay using washed platelets from male
[10] = target: von Willebrand factor (Homo sapiens) (UniProt P04275); assay: Inhibition of GPIbalpha-vWF binding assessed as ristocetin-induced platelet agglutination at 10 uM after 2 mins by static agglutination assay using washed platelets (reference value: 66.5%); parameters: scale not given: the % may be the effect or the level left
[11] = target: von Willebrand factor (Homo sapiens) (UniProt P04275); assay: Inhibition of GPIbalpha-vWF binding assessed as inhibition of ristocetin-induced platelet agglutination at 100 uM after 2 mins by static agglutination assay using washed platelets from female
[12] = target: von Willebrand factor (Homo sapiens) (UniProt P04275); assay: Inhibition of GPIbalpha-vWF binding assessed as ristocetin-induced platelet agglutination at 10 uM after 2 mins by static agglutination assay using platelet rich plasma (reference value: 76.3%); parameters: scale not given: the % may be the effect or the level left
[13] = target: von Willebrand factor (Homo sapiens) (UniProt P04275); assay: Inhibition of GPIbalpha-vWF binding assessed as ristocetin-induced platelet agglutination at 1 uM after 2 mins by static agglutination assay using washed platelets (reference value: 66.5%); parameters: scale not given: the % may be the effect or the level left
[14] = target: von Willebrand factor (Homo sapiens) (UniProt P04275); assay: Inhibition of GPIbalpha-vWF binding assessed as ristocetin-induced platelet agglutination at 100 uM after 2 mins by static agglutination assay using washed platelets (reference value: 66.5%); parameters: scale not given: the % may be the effect or the level left
[15] = target: von Willebrand factor (Homo sapiens) (UniProt P04275); assay: Inhibition of GPIbalpha-vWF binding assessed as ristocetin-induced platelet agglutination at 1 uM after 2 mins by static agglutination assay using platelet rich plasma (reference value: 76.3%); parameters: scale not given: the % may be the effect or the level left
[16] = target: von Willebrand factor (Homo sapiens) (UniProt P04275); assay: Inhibition of GPIbalpha-vWF binding assessed as ristocetin-induced platelet agglutination at 100 uM after 2 mins by static agglutination assay using platelet rich plasma (reference value: 76.3%); parameters: scale not given: the % may be the effect or the level left

Molecule	inhibition [1] [%]	Activity [4] [%]	Activity [5] [%]	Activity [6] [um/s]	other results
CC(C)[C@@H]1NC(=O)CNC(=O)[C@H](CCC(N)=O)NC(=O)[C@H](CCCCN)NC(=O)[C@H](Cc2c[nH]c3ccccc23)NC(=O)[C@H](C(C)C)NC(=O)[C@H](Cc2ccc(O)cc2)NC(=O)[C@H](C(C)C)NC(=O)[C@@H]2CCCN2C(=O)CNC(=O)[C@@H]2CCCN2C(=O)[C@H](CC(N)=O)NC(=O)[C@H](CO)NC(=O)[C@H]([C@@H](C)O)NC(=O)[C@H](C(C)C)NC(=O)[C@H](C)NC(=O)[C@H](CCCCN)NC(=O)[C@H](C(C)C)NC(=O)[C@H](CC(=O)O)NC1=O (cyclo(AVTSNPGPVYVWKQGVDVK))	40.5				inhibition [2]: Active; inhibition [3]: Active
H-PGPVYVWKQGVDVKAVTSN-OH					inhibition [2]: inactive; inhibition [3]: inactive
CC(=O)N[C@@H](CO)C(=O)N[C@@H](Cc1cnc[nH]1)C(=O)N[C@@H](CC(C)C)C(=O)N[C@@H](CCC(=O)O)C(=O)N[C@H](C(=O)N[C@@H](CC(N)=O)C(=O)N1CCC[C@H]1C(=O)N1CCC[C@@H]1C(=O)N[C@@H](CCC(=O)O)C(=O)N[C@H](C(=O)N[C@@H](CO)C(=O)N[C@@H](CCCCN)C(=O)N[C@H](C(=O)N[C@@H](C)C(=O)O)C(C)C)C(C)C)C(C)C	42.1				
CC(C)[C@@H]1NC(=O)CNC(=O)[C@H](CCC(N)=O)NC(=O)[C@H](CCCCN)NC(=O)[C@H](Cc2c[nH]c3ccccc23)NC(=O)[C@H](C(C)C)NC(=O)[C@H]2CCCN2C(=O)[C@@H]2CCCN2C(=O)[C@H]([C@@H](C)O)NC(=O)[C@H](C(C)C)NC(=O)[C@H](C)NC(=O)[C@H](CCCCN)NC(=O)[C@H](C(C)C)NC(=O)[C@H](CC(=O)O)NC1=O	8.9				
CC(C)[C@@H]1NC(=O)CNC(=O)[C@@H]2CSSC[C@H](NC(=O)[C@H](C(C)C)NC(=O)[C@H](CC(=O)O)NC1=O)C(=O)N[C@@H](C)C(=O)N[C@@H](C(C)C)C(=O)N[C@@H]([C@@H](C)O)C(=O)N1CCC[C@H]1C(=O)N1CCC[C@@H]1C(=O)N[C@@H](C(C)C)C(=O)N[C@@H](Cc1c[nH]c3ccccc13)C(=O)N[C@@H](CCCCN)C(=O)N2	44.6				
CC(C)C[C@@H]1NC(=O)[C@H](Cc2cnc[nH]2)NC(=O)[C@H](CO)NC(=O)[C@H](C)NC(=O)[C@H](C(C)C)NC(=O)[C@H](CCCCN)NC(=O)[C@H](CO)NC(=O)[C@H](C(C)C)NC(=O)[C@H](CCC(=O)O)NC(=O)[C@H]2CCCN2C(=O)[C@@H]2CCCN2C(=O)[C@H](CC(N)=O)NC(=O)[C@H](C(C)C)NC(=O)[C@H](CCC(=O)O)NC1=O	10.4				

Further lines, with some results ahead:

inhibition [1] [%]	Activity [4] [%]	Activity [5] [%]	Activity [6] [um/s]	Molecule	other results
7.1				CC(C)C[C@@H]1NC(=O)[C@H](Cc2cnc[nH]2)NC(=O)[C@H](CO)NC(=O)[C@H](C)NC(=O)[C@H](C(C)C)NC(=O)[C@H](CCCCN)NC(=O)[C@H](CO)NC(=O)[C@H](C(C)C)NC(=O)[C@H](CCC(=O)O)NC(=O)[C@@H](N)CSSC[C@@H](C(=O)N[C@@H](CC(=O)O)C(=O)N[C@@H](CCCCN)C(N)=O)NC(=O)[C@H](CC(N)=O)NC(=O)[C@H](C(C)C)NC(=O)[C@H](CCC(=O)O)NC1=O (H-CEVSKVASHLEVNCDK-NH2; disulfide 1-14)	
28.5	36	57.3	7	CC(C)[C@H](NC(=O)CNC(=O)[C@@H]1CSSC[C@H](NC(=O)[C@@H](NC(=O)[C@@H](N)CC(=O)O)C(C)C)C(=O)N[C@@H](C)C(=O)N[C@@H](C(C)C)C(=O)N2CCC[C@H]2C(=O)N2CCC[C@@H]2C(=O)N[C@@H](Cc2c[nH]c3ccccc23)C(=O)N[C@@H](CCCCN)C(=O)N1)C(N)=O	
	58.8	59.7	5.6	CC(C)[C@H](NC(=O)CNC(=O)[C@H](CCC(N)=O)NC(=O)[C@H](CCCCN)NC(=O)[C@H](Cc1c[nH]c2ccccc12)NC(=O)[C@H]1CCCN1C(=O)[C@@H]1CCCN1C(=O)[C@@H](NC(=O)[C@H](C)NC(=O)[C@H](CCCCN)NC(=O)[C@@H](NC(=O)[C@@H](N)CC(=O)O)C(C)C)C(C)C)C(=O)O	Activity [7]: 111%; Activity [8]: 99.7%
43.9	32	50.7	8.1	CC(C)[C@@H]1NC(=O)CNC(=O)[C@@H]2CSSC[C@H](NC(=O)[C@H](C(C)C)NC(=O)[C@H](CC(=O)O)NC1=O)C(=O)N[C@@H](C)C(=O)N[C@@H](C(C)C)C(=O)N1CCC[C@H]1C(=O)N1CCC[C@@H]1C(=O)N[C@@H](Cc1c[nH]c3ccccc13)C(=O)N[C@@H](CCCCN)C(=O)N2	inhibition [9]: 44.8%; Activity [7]: 107%; Activity [10]: 46%; inhibition [11]: 17.8%; Activity [12]: 57.3%; Activity [13]: 57.5%; Activity [8]: 122%; Activity [14]: 37.3%; Activity [15]: 61.7%; Activity [16]: 46.7%
